The values that follow come from DBAASP.

Some test systems named below: Staphylococcus aureus MR; Edwardsiella tarda; Staphylococcus aureus; Aeromonas hydrophila; Candida albicans; Escherichia coli; Enterococcus avium; Streptococcus agalactiae; Gardnerella vaginalis; Bacillus subtilis; Pseudomonas aeruginosa; Streptococcus anginosus; Lactobacillus crispatus; Candida parapsilosis; Candida tropicalis; Candida krusei; Candida krusei ATCC 6258.

What all share (experiment): ≥ marks a high value that may be exact or a test limit, other limits are often not marked, values filed in µg/mL are converted to µM
Assay [1] relates to Lactobacillus crispatus ATCC 33820.
In assay [2] the test system is Gardnerella vaginalis ATCC 14018.
In assay [3] the test system is Enterococcus faecalis ATCC 51299.
In assay [4] the test system is Enterococcus faecium ATCC 51559.
Assay [5] concerns Bacillus pumilus ATCC 63202.
Assay [6] concerns Candida albicans ATCC 14053.
Assay [7] relates to Lactobacillus gasseri ATCC 33323.
Assay [8] relates to Lactiplantibacillus plantarum ATCC 14917.
For assay [9], the system named is Staphylococcus aureus ATCC 49476.
The test system of assay [10] is Lactobacillus jensenii ATCC 25258.
The subject of assay [11] is Streptococcus pasteurianus.
Assay [12] deals with Staphylococcus aureus ATCC 25923.
Assay [13] deals with Pseudomonas aeruginosa ATCC 27853.
Assay [14] has as its system Escherichia coli ATCC 25922.
Assay [15] relates to Staphylococcus aureus ATCC 43300.
In assay [16] the test system is Streptococcus intermedius.
Assay [17] relates to Staphylococcus aureus ATCC 31007.
Assay [18] has as its system Gardnerella vaginalis ATCC 49145.
Assay [19] deals with Bacillus subtilis ATCC 9372.
For assay [20], the system named is Staphylococcus epidermidis RP62A.
For assay [21], the system named is Candida tropicalis B51a/5.
Assay [22] deals with Klebsiella pneumoniae KK3 9904.
Assay [23] has as its system Candida albicans ATCC 90028.
The test system of assay [24] is Candida parapsilosis ATCC 22019.
Assay [25] relates to Enterococcus faecalis ATCC 29212.
For assay [26], the system named is Enterobacter cloacae HNTCC 53001.
In assay [27] the test system is Proteus mirabilis ATCC 25933.

≈ marks a conversion by molar mass, not a printed value. Where “and” joins values, the source holds several entries; their conditions need not be identical. Equal values may be shown once.

Take `CC[C@H](C)[C@H](NC(=O)[C@H](C)NC(=O)[C@H](CCCCN)NC(=O)CNC(=O)[C@H](C)NC(=O)[C@H](CO)NC(=O)[C@H](Cc1ccccc1)NC(=O)[C@H](CC(C)C)NC(=O)CNC(=O)CNC(=O)[C@@H](NC(=O)[C@@H](NC(=O)[C@H](Cc1cnc[nH]1)NC(=O)[C@H](Cc1cnc[nH]1)NC(=O)[C@@H](NC(=O)[C@@H](N)Cc1ccccc1)[C@@H](C)CC)[C@@H](C)CC)[C@@H](C)CC)C(=O)N[C@@H](Cc1cnc[nH]1)C(=O)N[C@@H](CCCN=C(N)N)C(=O)N[C@@H](CC(C)C)C(=O)N[C@H](C(=O)N[C@@H](CCCN=C(N)N)C(=O)N[C@@H](CCCN=C(N)N)C(=O)N[C@@H](CCCN=C(N)N)C(=O)N[C@@H](CCCN=C(N)N)C(=O)N[C@@H](CCCN=C(N)N)C(=O)O)[C@@H](C)CC` [FIHHIIGGLFSAGKAIHRLIRRRRR]: the MIC in the assay on Staphylococcus aureus MR was 5.37 µM (≈ 16 µg/mL); in assay [1] it was at least 41.9 µM; against Edwardsiella tarda, 20 µM (≈ 59.6 µg/mL); in assay [2] it was 1.31 µM and 2.62 µM; in assay [3], 10.8 µM (≈ 32.2 µg/mL); in the assay on Staphylococcus aureus, 5 µM (≈ 14.9 µg/mL). Also, the MIC was 2.7 µM (≈ 8.05 µg/mL) in assay [4]; 1.3 µM (≈ 3.88 µg/mL) in assay [5]; 2.62 µM (≈ 7.81 µg/mL) in [6]; at least 160 µM against Aeromonas hydrophila; 26.7 µM and 42.9 µM with Candida albicans; at least 168 µM in [7]. Besides, the MIC was 5 µM and 1.85 µM against Escherichia coli; 0.926 µM (≈ 2.76 µg/mL) in the assay on Enterococcus avium; at least 41.9 µM in assay [8]; 2.68 µM (≈ 8 µg/mL) in assay [9]; at least 83.8 µM in [10]; 3.71 µM (≈ 11 µg/mL) in the assay with Streptococcus agalactiae. The MIC in assay [11] was 1.85 µM (≈ 5.53 µg/mL); in assay [12] it was 2.7 µM and 5.4 µM; in assay [13] it was 21.5 µM (≈ 64 µg/mL); in [14] it was 42.9 µM (≈ 128 µg/mL); against Gardnerella vaginalis, 1.85 µM (≈ 5.53 µg/mL); against Bacillus subtilis it was 1.7 µM (≈ 5.07 µg/mL). Moreover, the MIC was found to be 6.67 µM (≈ 19.9 µg/mL) against Pseudomonas aeruginosa; 2.7 µM (≈ 8.05 µg/mL) in assay [15]; 5.24 µM (≈ 15.6 µg/mL) in assay [16]; 5.4 µM (≈ 16.1 µg/mL) in assay [17]; 1.31 µM (≈ 3.91 µg/mL) in [18]; 3.71 µM (≈ 11 µg/mL) in the assay on Streptococcus anginosus. In addition, the MIC in [19] came out at 2.7 µM (≈ 8.05 µg/mL); against Lactobacillus crispatus, 29.6 µM (≈ 88.4 µg/mL).

For `CC[C@H](C)[C@H](NC(=O)[C@@H]1CCCN1C(=O)[C@H](CC(C)C)NC(=O)[C@@H](N)Cc1ccccc1)C(=O)N[C@@H](CC(C)C)C(=O)N[C@@H](C)C(=O)N[C@@H](CO)C(=O)N[C@@H](CC(C)C)C(=O)N[C@@H](C)C(=O)N[C@@H](C)C(=O)N[C@@H](CCCCN)C(=O)N[C@@H](Cc1ccccc1)C(=O)NCC(=O)N1CCC[C@H]1C(=O)N[C@@H](CCCCN)C(=O)N[C@@H](CC(C)C)C(=O)N[C@@H](Cc1ccccc1)C(=O)N[C@@H](CO)C(=O)N[C@@H](CC(C)C)C(=O)N[C@H](C(=O)N[C@H](C(=O)N[C@@H](CCCCN)C(=O)N[C@@H](CCCCN)C(=O)N[C@@H](CO)C(=O)O)[C@@H](C)O)C(C)C` [FLPILASLAAKFGPKLFSLVTKKS], the MIC was 5 µM (≈ 12.9 µg/mL) in assay [20]; at least 40 µM in the assay on Candida parapsilosis; 20 µM (≈ 51.5 µg/mL) in the assay with Candida tropicalis; at least 40 µM with Candida krusei; 10 µM (≈ 25.8 µg/mL) in [21]; at least 40 µM in assay [22]. The MIC in [23] is 25 µM (≈ 64.4 µg/mL); in assay [24], at least 40 µM; with Candida albicans, 40 µM (≈ 103 µg/mL); in [25] it was 20 µM (≈ 51.5 µg/mL); in [12], 3 µM (≈ 7.73 µg/mL); in [13], 40 µM (≈ 103 µg/mL). Moreover, the minimum inhibitory concentration (MIC) in assay [14] is 50 µM (≈ 129 µg/mL); in [26] it was at least 40 µM; against Candida krusei ATCC 6258, at least 40 µM; in assay [27] it was at least 40 µM.
